Source: paper doi:10.1101/2020.01.06.895540v1 (biorxiv, 2020)

Assays:
Assay in all cases: cell-based
Design in all cases: species or system Hana3A
hOR11H12 = biological target: T1, hOR11H12 (Homo sapiens, UniProt B2RN74)
T1 sequence (B2RN74 1-326): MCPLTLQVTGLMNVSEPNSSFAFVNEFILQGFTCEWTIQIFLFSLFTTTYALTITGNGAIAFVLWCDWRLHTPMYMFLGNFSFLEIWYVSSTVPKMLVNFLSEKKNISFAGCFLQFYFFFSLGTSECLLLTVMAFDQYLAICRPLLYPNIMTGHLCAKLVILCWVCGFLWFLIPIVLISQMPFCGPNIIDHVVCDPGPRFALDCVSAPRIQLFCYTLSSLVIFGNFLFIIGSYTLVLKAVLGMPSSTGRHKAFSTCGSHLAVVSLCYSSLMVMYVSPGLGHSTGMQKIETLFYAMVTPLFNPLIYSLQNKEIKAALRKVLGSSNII

hOR8K5 = biological target: T2, hOR8K5 (Homo sapiens, UniProt Q8NH50)
T2 sequence (Q8NH50 1-307): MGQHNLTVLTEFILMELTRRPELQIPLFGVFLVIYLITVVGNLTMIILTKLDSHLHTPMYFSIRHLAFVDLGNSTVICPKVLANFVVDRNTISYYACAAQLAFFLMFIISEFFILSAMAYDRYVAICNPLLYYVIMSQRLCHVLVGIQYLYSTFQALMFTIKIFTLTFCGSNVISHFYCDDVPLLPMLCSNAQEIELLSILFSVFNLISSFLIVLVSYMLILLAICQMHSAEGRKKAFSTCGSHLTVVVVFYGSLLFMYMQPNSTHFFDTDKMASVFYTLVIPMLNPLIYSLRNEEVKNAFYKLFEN

hOR5R1 = biological target: T3, hOR5R1 (Homo sapiens, UniProt Q8NH85)
T3 sequence (Q8NH85 1-324): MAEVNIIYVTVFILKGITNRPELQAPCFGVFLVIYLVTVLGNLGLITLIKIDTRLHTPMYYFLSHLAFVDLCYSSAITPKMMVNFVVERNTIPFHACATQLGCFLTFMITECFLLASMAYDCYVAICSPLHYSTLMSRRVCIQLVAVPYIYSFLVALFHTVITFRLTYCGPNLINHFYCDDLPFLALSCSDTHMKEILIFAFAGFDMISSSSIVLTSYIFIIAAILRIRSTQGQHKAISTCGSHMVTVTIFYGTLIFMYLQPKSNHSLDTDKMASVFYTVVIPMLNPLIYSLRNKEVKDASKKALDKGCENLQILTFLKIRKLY

hOR8B2 = biological target: T4, hOR8B2 (Homo sapiens, UniProt Q96RD0)
T4 sequence (Q96RD0 1-313): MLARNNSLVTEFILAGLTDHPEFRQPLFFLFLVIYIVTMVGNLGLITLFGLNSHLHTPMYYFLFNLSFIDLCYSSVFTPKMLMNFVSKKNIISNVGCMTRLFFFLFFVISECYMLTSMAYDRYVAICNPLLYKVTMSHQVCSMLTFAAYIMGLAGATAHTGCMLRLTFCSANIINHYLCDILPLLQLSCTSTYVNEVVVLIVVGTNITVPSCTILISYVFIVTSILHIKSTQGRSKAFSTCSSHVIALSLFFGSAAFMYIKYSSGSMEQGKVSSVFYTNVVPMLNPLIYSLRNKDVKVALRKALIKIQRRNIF

EC50 (hOR11H12) [µM] | EC50 (hOR8K5) [µM] | EC50 (hOR5R1) [µM] | EC50 (hOR8B2) [µM] | Structure (SMILES)
> 1000 | > 1000 | 218 | 15 | O=C1CCOc2ccccc21 [4-chromanone]
16.3 | 4.5 | 12 | > 1000 | C=C(C)[C@@H]1CC=C(C)C(=O)C1 [R-carvone]
4.7 | > 1000 | 3.4 | > 1000 | CC(=O)c1ccccc1 [acetophenone]
91.9 | > 1000 | 10.2 | > 1000 | O=c1ccc2ccccc2o1 [coumarin]
